Molecules are shown by their SMILES.

T1 sequence (P52333 822-1111 limits assumed): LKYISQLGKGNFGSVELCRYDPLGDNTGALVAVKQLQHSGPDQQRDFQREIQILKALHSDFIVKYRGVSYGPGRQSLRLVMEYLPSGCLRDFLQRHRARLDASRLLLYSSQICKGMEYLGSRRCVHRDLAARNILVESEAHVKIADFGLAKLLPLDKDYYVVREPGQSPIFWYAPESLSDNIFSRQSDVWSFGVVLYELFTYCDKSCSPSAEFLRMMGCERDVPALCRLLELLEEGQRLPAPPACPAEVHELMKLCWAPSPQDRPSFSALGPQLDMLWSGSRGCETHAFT

One assay addresses T1, JAK-3 (Homo sapiens, UniProt P52333).
T1 construct: GST fusion constructs of the kinase domains of both enzymes are used; GST
Briefly: JAK LANCE enzymatic assay (JAK-3). It is filed as biochemical. Particulars: Table A; read-out: Jak-3/ IC50. From the text: Binding of cytokines and certain growth factors to their respective receptors trigger activation of Janus kinases, which phosphorylate members of the STAT family. Phosphorylated STAT molecules dimerize and migrate to the nucleus where they bind to DNA and initiate transcription of responsive genes. Inhibitors of pathways downstream of cytokine/growth factor receptors have therapeutic potential for several indications. An enzymatic assay for JAK-3 and JAK-2 has been developed to identify T-cell selective inhibitors. GST fusion constructs of the kinase domains of both enzymes are used and a biotinylated, tyrosine containing peptide serves as substrate. Phosphorylation of this peptide by the respective kinase is quantified with an europium-labeled anti-phosphotyrosine antibody (Eu-PT66) as energy donor and a streptavidin-allophycocyanine conjugate (SA-APC) as energy acceptor. The assay has been established in a 384 well format.
In the JAK LANCE™ assay, a biotinylated peptide is incubated together with compounds and ATP in buffer. The phosphorylation reaction starts after addition of JAK kinase. After incubation at RT the reaction is stopped with EDTA and the product detected by addition Streptavidin-Allophycocyanin and Europium-labeled antiphosphotyrosine antibody. The signal is measured using an EnVision Reader. Exc: 320 nm, Em, Donor: 615 nm and Em, Acceptor: 665 nm in time resolved fashion with a delay of […].
For orientation: TR-FRET usually uses a lanthanide donor and a delayed reading to cut background.
As to `CCC(CC)N1C(=O)Cc2cnc(Nc3cc(NC(=O)c4ccncc4)ccc3OC)nc21`, the IC50 was ≥ 100 nM.

Take `CCC(CC)N1C(=O)Cc2cnc(Nc3ccc(N4CCN(C(C)=O)CC4)cc3)nc21`: the IC50 was ≤ 100 nM.

Take `CCC(CC)N1C(=O)Cc2cnc(Nc3ccc(OCCN4CCCC4)cc3)nc21`: the IC50 is ≤ 100 nM.

Take `CCC(CC)N1C(=O)Cc2cnc(Nc3ccc(NC(C)=O)cc3)nc21`: the IC50 was ≥ 100 nM.

Turning to `CCC(CC)N1C(=O)Cc2cnc(Nc3cccc(NC(=O)c4ccncc4)c3)nc21`, the IC50 is ≤ 100 nM.

As to `CN1CCN(C(=O)c2cccc(Nc3ncc4c(n3)N(C3CC3)C(=O)C4)c2)CC1`, the IC50 was ≥ 100 nM.

Consider `CCC(CC)N1C(=O)Cc2cnc(Nc3ccc(C(=O)N4CCOCC4)cc3)nc21`, for which the IC50 was ≥ 100 nM.

For the compound `CCC(CC)N1C(=O)Cc2cnc(Nc3ccc(NC(=O)c4ccncc4)cc3)nc21`, the IC50 is ≥ 100 nM.

Consider `CCC(CC)N1C(=O)Cc2cnc(Nc3ccc(C(=O)NCCN(C)C)cc3)nc21`, for which the IC50 is ≥ 100 nM.

As to `CN1CCN(c2ccc(Nc3ncc4c(n3)NC(=O)C4)cc2)CC1`, the IC50 was ≥ 100 nM.

Take `CCC(CC)n1ccc2cnc(Nc3ccc(N4CCN(C)CC4)cn3)nc21` [drawing 82]: the IC50 is ≥ 100 nM.

For the compound `COc1ccc(C(=O)N2CCOCC2)cc1Nc1ncc2c(n1)NC(=O)C2` [drawing 17], the IC50 is ≥ 100 nM.

As for `CCC(CC)N1C(=O)Cc2cnc(Nc3ccc(N4CCC(O)CC4)cc3)nc21`, the IC50 was ≤ 100 nM.

With `CCC(CC)N1C(=O)Cc2cnc(Nc3cc(C(=O)N4CCOCC4)ccc3F)nc21`, the IC50 was ≥ 100 nM.

`CCC(CC)n1c(=O)[nH]c2cnc(Nc3ccc(N4CCN(C(C)=O)CC4)cc3)nc21`: the IC50 was ≥ 100 nM.

`CCC(CC)N1C(=O)Cc2cnc(Nc3ccc(C(=O)NC)cc3)nc21`: the IC50 is ≥ 100 nM.

Take `COc1ccc(C(=O)N2CCOCC2)cc1Nc1ncc2c(n1)NC(=O)C2` [drawing 19]: the IC50 is ≥ 100 nM.

In the case of `CCC(CC)N1C(=O)Cc2cnc(Nc3cccc(N(C)CCN4CCCC4)c3)nc21`, the IC50 is ≥ 100 nM.

For the compound `CCC(CC)n1cnc2cnc(Nc3ccc(N4CCN(C)CC4)cc3)nc21`, the IC50 was ≥ 100 nM.

Consider `O=C(c1ccc(Nc2ncc3c(n2)N(C2CC2)C(=O)C3)cc1)N1CCOCC1`, for which the IC50 is ≥ 100 nM.

`O=C1Cc2cnc(Nc3ccc(N4CCOCC4)cc3)nc2N1C1CC1`: the IC50 is ≥ 100 nM.

Consider `O=C1Cc2cnc(Nc3ccc(C(=O)N4CCOCC4)cc3)nc2N1`, for which the IC50 was ≥ 100 nM.

For `CCC(CC)n1ccc2cnc(Nc3cccc(OCCN4CCCC4)c3)nc21`, the IC50 is ≤ 100 nM.

For `CN1CCN(c2ccc(Nc3ncc4c(n3)N(C3CCCCC3)C(=O)C4)cc2)CC1`, the IC50 was ≤ 100 nM.

On to `CN1CCN(C(=O)c2cccc(Nc3ncc4c(n3)N(C3CCCCC3)C(=O)C4)c2)CC1`, for which the IC50 was ≥ 100 nM.

`CCC(CC)N1C(=O)Cc2cnc(Nc3ccc(C(=O)NC(C)C)cc3)nc21`: the IC50 is ≥ 100 nM.

On to `CCC(CC)N1C(=O)Cc2cnc(Nc3ccc(S(=O)(=O)Nc4ccccn4)cc3)nc21`, for which the IC50 was ≥ 100 nM.

For the compound `CN1CCN(c2ccc(Nc3ncc4c(n3)N(C3CC3)C(=O)C4)cc2)CC1`, the IC50 was ≥ 100 nM.

With `CCC(CC)N1C(=O)Cc2cnc(Nc3ccc(N4CCN(C)CC4)cc3)nc21`, the IC50 was ≤ 100 nM.

On to `CCC(CC)N1C(=O)Cc2cnc(Nc3cccc(OCCN4CCOCC4)c3)nc21`, for which the IC50 was ≥ 100 nM.

In the case of `CCC(CC)N1C(=O)Cc2cnc(Nc3ccc(N4CCN(C)CC4)nc3)nc21`, the IC50 is ≥ 100 nM.

Take `CCC(CC)N1C(=O)Cc2cnc(Nc3cccc(-c4nncn4C)c3)nc21`: the IC50 is ≥ 100 nM.

Regarding `CCNC(=O)c1ccc(Nc2ncc3c(n2)N(C(CC)CC)C(=O)C3)cc1`, the IC50 was ≤ 100 nM.

`CCC(c1ccccc1)N1C(=O)Cc2cnc(Nc3ccc(N4CCN(C(C)=O)CC4)cc3)nc21` (stereo not shown): the IC50 is ≥ 100 nM.

Regarding `CCC(CC)N1C(=O)Cc2cnc(Nc3cccc(NCCN4CCN(C)CC4)c3)nc21`, the IC50 is ≤ 100 nM.

`COc1ccc(C(=O)N2CCN(C)CC2)cc1Nc1ncc2c(n1)NC(=O)C2` [drawing 18]: the IC50 was ≥ 100 nM.

As for `CCC(CC)N1C(=O)Cc2cnc(Nc3ccc(C(=O)NCCN4CCN(C)CC4)cc3)nc21`, the IC50 was ≥ 100 nM.

In the case of `CCC(CC)N1C(=O)Cc2cnc(Nc3cccc(NCCN4CCCC4)c3)nc21`, the IC50 was ≤ 100 nM.

With `CCC(CC)N1C(=O)Cc2cnc(Nc3ccc(N4CCCCC4)cc3)nc21`, the IC50 is ≥ 100 nM.

On to `CCC(CC)N1C(=O)Cc2cnc(Nc3ccc(C(=O)N4CCN(C)CC4)cc3)nc21`, for which the IC50 is ≥ 100 nM.

As to `CCC(CC)N1C(=O)Cc2cnc(Nc3ccc(N4CCC(N5CCN(C)CC5)CC4)cc3)nc21`, the IC50 was ≤ 100 nM.

As to `CCC(CC)N1C(=O)Cc2cnc(Nc3ccc(S(=O)(=O)N4CCN(C)CC4)cc3)nc21`, the IC50 is ≥ 100 nM.

`CCC(CC)N1C(=O)Cc2cnc(Nc3ccc(N4CCN(C(C)=O)CC4)cn3)nc21`: the IC50 is ≥ 100 nM.

`CCC(CC)n1ccc2cnc(Nc3cccc(NC(=O)c4ccncc4)c3)nc21`: the IC50 was ≤ 100 nM.

Turning to `CCC(CC)n1ccc2cnc(Nc3ccc(N4CCN(C)CC4)c(F)c3)nc21` [drawing 83], the IC50 is ≤ 100 nM.

For `CCC(CC)N1C(=O)Cc2cnc(Cl)nc21`, the IC50 is ≥ 100 nM.

For the compound `CCC(CC)N1C(=O)Cc2cnc(Nc3ccc(C(=O)NC4CCCC4)cc3)nc21`, the IC50 was ≤ 100 nM.

Consider `O=C1Cc2cnc(Nc3ccc(N4CCOCC4)cc3)nc2N1C1CCCC1`, for which the IC50 was ≥ 100 nM.

`CCC(CC)n1c(=O)n(C)c2cnc(Nc3ccc(N4CCN(C)CC4)cc3)nc21`: the IC50 is ≤ 100 nM.

Take `CCC(CC)N1C(=O)Cc2cnc(Nc3ccc(N4CCN(C)CC4)c(F)c3)nc21`: the IC50 was ≤ 100 nM.

Consider `CCC(c1ccccc1)N1C(=O)Cc2cnc(Nc3cccc(OCCn4ccnc4)c3)nc21` (stereo not shown), for which the IC50 is ≥ 100 nM.

Regarding `CCC(CC)n1c(=O)[nH]c2cnc(Nc3ccc(N4CCN(C)CC4)cc3)nc21`, the IC50 is ≤ 100 nM.

`CCC(CC)N1C(=O)Cc2cnc(Nc3cc(NC(=O)c4ccncc4)ccc3F)nc21`: the IC50 is ≥ 100 nM.

In the case of `CCC(CC)N1C(=O)Cc2cnc(Nc3ccc(N4CCN(S(C)(=O)=O)CC4)cc3)nc21`, the IC50 is ≤ 100 nM.

For `CCC(CC)N1C(=O)Cc2cnc(Nc3ccc(N4CCOCC4)cc3)nc21`, the IC50 is ≤ 100 nM.

Consider `CCC(CC)N1C(=O)Cc2cnc(Nc3cc(C(=O)N4CCOCC4)ccc3OC)nc21`, for which the IC50 is ≥ 100 nM.

Take `CCC(CC)N1C(=O)C(C)(C)c2cnc(Nc3ccc(N4CCN(C(C)=O)CC4)cc3)nc21`: the IC50 is ≥ 100 nM.

With `CCC(CC)n1ccc2cnc(Nc3ccc(N4CCN(C)CC4)cc3)nc21`, the IC50 is ≤ 100 nM.

`CCC(c1ccccc1)n1ccc2cnc(Nc3ccc(N4CCN(C(C)=O)CC4)cc3)nc21` (stereo not shown): the IC50 is ≤ 100 nM.

As for `CCC(CC)N1C(=O)Cc2cnc(Nc3cccc(C(=O)N4CCOCC4)c3)nc21`, the IC50 is ≥ 100 nM.

With `CC(=O)N1CCN(c2ccc(Nc3ncc(Br)c(Nc4ccccn4)n3)cc2)CC1`, the IC50 was ≤ 100 nM.

Regarding `CCC(CC)N1C(=O)Cc2cnc(Nc3cccc(C(=O)N4CCN(C)CC4)c3)nc21`, the IC50 was ≥ 100 nM.

Turning to `CCC(CC)N1C(=O)Cc2cnc(Nc3ccc(NC(=O)c4cccnc4)cc3)nc21`, the IC50 is ≥ 100 nM.

The assay is the same for the next values; noted with them: Table B; read-out: Jak-3 Lance/ IC50 [nmol I-1].
Consider `Cc1cn(C2CC2)c2nc(Nc3ccc(N4CCN(C)CC4)cc3)ncc12` [drawing 121], for which the IC50 is ≥ 100 nM.

With `Cc1cn(C2CC2)c2nc(Nc3ccc(N4CCNCC4)cn3)ncc12` [drawing 123], the IC50 was ≥ 100 nM.

As for `CC(=O)N1CCN(c2ccc(Nc3ncc4ccn(C5CCCC5)c4n3)cc2)CC1` [drawing 111], the IC50 was ≥ 100 nM.

For the compound `CCC(CC)n1cc(C)c2cnc(Nc3ccc(C(=O)NC4CCCC4)cc3)nc21` [drawing 116], the IC50 is ≥ 100 nM.

For `CCC(CC)N1C(=O)C(C)(C)c2cnc(Nc3ccc(N4CCN(C)CC4)cc3)nc21` [drawing 105], the IC50 is ≥ 100 nM.

As for `CCOC(OCC)c1cc2cnc(Nc3ccc(N4CCN(C(C)=O)CC4)cc3)nc2n1C(CC)CC` [drawing 117], the IC50 is ≥ 100 nM.

Turning to `CCC(CC)n1ccc2cnc(NC3CC3)nc21` [drawing 100], the IC50 is ≥ 100 nM.

As to `CCC(CC)n1cc(C)c2cnc(Nc3ccc(N4CCN(C(C)=O)CC4)cc3)nc21` [drawing 101], the IC50 was ≥ 100 nM.

Regarding `CCC(CC)n1cc(C)c2cnc(Nc3ccc(N4CCN(C)CC4)cc3)nc21` [drawing 103], the IC50 is ≥ 100 nM.

As to `Cc1cn(C2CCCCC2)c2nc(Nc3ccc(N4CCN(C)CC4)cc3)ncc12` [drawing 115], the IC50 was ≥ 100 nM.

`CCC(CC)n1c(CO)cc2cnc(Nc3ccc(N4CCN(C(C)=O)CC4)cc3)nc21` [drawing 119]: the IC50 was ≤ 100 nM.

For `CCC(CC)n1c(C)cc2cnc(Nc3ccc(N4CCNCC4)cc3)nc21` [drawing 125], the IC50 is ≤ 100 nM.

`CCC(CC)N1C(=O)C(C)(C)c2cnc(Nc3ccc(N4CCNCC4)cc3)nc21` [drawing 112]: the IC50 was ≥ 100 nM.

Take `CCC(CC)n1ccc2cnc(Nc3ccc(C(=O)NC4CCCC4)cc3)nc21` [drawing 99]: the IC50 was ≤ 100 nM.

With `Cc1cn(C2CCCCC2)c2nc(Nc3ccc(N4CCNCC4)cc3)ncc12`, the IC50 is ≥ 100 nM.

As to `CCC(CC)n1c(C)cc2cnc(Nc3ccc(C(=O)NC4CCCC4)cc3)nc21` [drawing 124], the IC50 was ≥ 100 nM.

Source of the values: patent publication US20120207763A1, “PYRROLOPYRIMIDINE COMPOUNDS AND THEIR USES” (ASTEX THERAPEUTICS LIMITED, priority 2006, published 2012).
